# T1: Cor1, subunit of CIII (S. cerevisiae (endogenous in strain …, UniProt P07256 27-457))
# T1 construct: Cor1, subunit of complex III, S. cerevisiae; source: endogenous, mitochondria of S. cerevisiae strain USY00b; within the purified III2IV2 SC (sucrose gradient)
# T1 sequence (looked up): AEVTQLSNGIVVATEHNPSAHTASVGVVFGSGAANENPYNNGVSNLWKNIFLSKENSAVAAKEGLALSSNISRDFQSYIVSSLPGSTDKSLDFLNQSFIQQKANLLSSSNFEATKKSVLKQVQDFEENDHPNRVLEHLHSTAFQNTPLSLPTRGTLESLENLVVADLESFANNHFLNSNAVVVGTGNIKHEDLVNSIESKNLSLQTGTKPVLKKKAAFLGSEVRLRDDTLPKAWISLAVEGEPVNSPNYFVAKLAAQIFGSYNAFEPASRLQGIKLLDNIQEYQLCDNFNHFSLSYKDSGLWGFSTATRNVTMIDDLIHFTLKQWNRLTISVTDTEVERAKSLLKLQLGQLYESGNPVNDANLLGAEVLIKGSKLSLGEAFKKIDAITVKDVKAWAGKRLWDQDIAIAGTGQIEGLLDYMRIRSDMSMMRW
# B1: Cox5a, subunit of CIV (natural protein, UniProt P00424 21-153, looked up)
# chain: AQTHALSNAAVMDLQSRWENMPSTEQQDIVSKLSERQKLPWAQLTEPEKQAVWYISYGEWGPRRPVLNKGDSSFIAKGVAAGLLFSVGLFAVVRMAGGQDAKTMNKEWQLKSDEYLKSKNANPWGGYSQVQSK
# notes: Cox5a, subunit of complex IV, S. cerevisiae; source: endogenous, mitochondria of S. cerevisiae strain USY00b; within the purified III2IV2 SC (sucrose gradient)
# How the values were obtained:
# [1] = tested on: T2, WT SC (IV1III2IV1; III2IV2 tetrameric respiratory supercomplex); assay: cryo-EM structure […] Å; assay type: binding, Saccharomyces cerevisiae; settings: Qi and Qo sites of complex III; Cob, Rip1 His181 (Qo); copurified endogenous
# T2 construct: gene COB; native tetramer (complex III dimer flanked by two complex IV), digitonin extract of mitochondria, FoF1-ATPase removed, sucrose gradient; no tag on the supercomplex; with Cytochrome b-c1 complex subunit 2, mitochondrial; Cytochrome b-c1 complex subunit 6, mitochondrial; Cytochrome b-c1 complex subunit 9, mitochondrial; Cytochrome b-c1 complex subunit 10, mitochondrial; Cytochrome c oxidase subunit 2; Cytochrome c oxidase subunit 3; Cytochrome c oxidase subunit 4, mitochondrial; Cytochrome c oxidase subunit 5A, mitochondrial; Cytochrome c oxidase subunit 6, mitochondrial; Cytochrome c oxidase subunit 7, mitochondrial; Cytochrome c oxidase subunit 8, mitochondrial; Cytochrome c oxidase subunit 9, mitochondrial; Cytochrome c oxidase subunit 12, mitochondrial; Cytochrome c oxidase subunit 13, mitochondrial; Cytochrome c oxidase subunit 26, mitochondrial
# [2] = tested on: T3, CRD1∆ SC (III2IV1 trimeric respiratory supercomplex); assay: cryo-EM structure […] Å; assay type: binding, Saccharomyces cerevisiae; settings: Qi sites of complex III only (Cob); endogenous
# T3 construct: gene COB; native trimer (complex III dimer plus one complex IV) from cardiolipin-lacking strain, Cox4 with C-terminal His10, subunit Qcr10 lost; digitonin, His-Trap and SEC; with Cytochrome b-c1 complex subunit 1, mitochondrial; Cytochrome b-c1 complex subunit 2, mitochondrial; Cytochrome b-c1 complex subunit 6, mitochondrial; Cytochrome b-c1 complex subunit 7, mitochondrial; Cytochrome b-c1 complex subunit 9, mitochondrial; Cytochrome c oxidase subunit 2; Cytochrome c oxidase subunit 3; Cytochrome c oxidase subunit 4, mitochondrial; Cytochrome c oxidase subunit 6, mitochondrial; Cytochrome c oxidase subunit 7, mitochondrial; Cytochrome c oxidase subunit 8, mitochondrial; Cytochrome c oxidase subunit 9, mitochondrial; Cytochrome c oxidase subunit 12, mitochondrial; Cytochrome c oxidase subunit 13, mitochondrial; Cytochrome c oxidase subunit 26, mitochondrial
# [3] = tested on: T2, WT SC (IV1III2IV1; III2IV2 tetrameric respiratory supercomplex); assay: oxygen consumption, Oroboros respirometry; assay type: biochemical, Saccharomyces cerevisiae; settings: 100 μM DQH2, 50 μM cytochrome c, 0.05% digitonin, pH 7.1, 30 °C
# [4] = tested on: T3, CRD1∆ SC (III2IV1 trimeric respiratory supercomplex); assay: oxygen consumption, Oroboros respirometry; assay type: biochemical, Saccharomyces cerevisiae; settings: 100 μM DQH2, 50 μM cytochrome c, 0.05% digitonin, pH 7.1, 30 °C
# [5] = target: complex III2 (CIII) of the trimeric supercomplex (III2IV1) from the cardiolipin-lacking CRD1∆ S. cerevisiae mutant (S. cerevisiae (endogenous in strain YEB100)) (UniProt P07256); assay: cryo-EM structure; trimeric SC (III2IV1) from the CRD1∆ strain, purified by His-Trap (Cox4-His10) and Superose 6 in 0.05% digitonin; Titan Krios, with added 30° tilt data; 3.3 Å
# [6] = target: complex III2 (CIII, dimer of cytochrome bc1) of the wild type S. cerevisiae respiratory supercomplex (S. cerevisiae (endogenous in strain USY00b)) (UniProt P07256); assay: cryo-EM structure; WT tetrameric SC (IV1III2IV1) purified by sucrose gradient in digitonin, diluted 1:9 in 15 mM Tris-HCl pH 7.2, 20 mM KCl; Titan Krios 300 kV; 3.2 Å
# Cor1, subunit of CIII = target: T1, Cor1, subunit of CIII; assay: as above; settings: both partners purified
molecule,measurement,setting,value
COC1=C(OC)C(=O)C(C/C=C(\C)CC/C=C(\C)CC/C=C(\C)CC/C=C(\C)CC/C=C(\C)CCC=C(C)C)=C(C)C1=O [UQ6],cryo-EM structure 3.2 Å,[1],"four UQ6 ligands were placed into the map, two in each monomer of CIII"
same,cryo-EM structure 3.3 Å,[2],Densities for UQ6 were found only at Qi sites
CCCCCCCCCCc1c(C)c(O)c(OC)c(OC)c1O [reduced decylubiquinone],"oxygen consumption, Oroboros respirometry",[3],purified WT SC supplemented with Cyt c and reduced decylubiquinone (DQH2) also displayed similar activity
same,"oxygen consumption, Oroboros respirometry",[4],"Due to limited amounts of the ∆CRD1 SC, only one determination was possible"
complex III2 (CIII) of the trimeric supercomplex (III2IV1) from the cardiolipin-lacking CRD1∆ S. cerevisiae mutant (from UniProt P07256 27-457; P00163 1-385; P07143 62-309; P08067 31-215; P00128 1-127; P08525 1-94; P22289 1-66),stoichiometry N,[5],2
"complex III2 (CIII, dimer of cytochrome bc1) of the wild type S. cerevisiae respiratory supercomplex (from UniProt P07256 27-457; P00163 1-385; P07143 62-309; P08067 31-215; P00128 1-127; P08525 1-94; P22289 1-66; P37299 1-77)",stoichiometry N,[6],2
B1,binding result,"Cor1, subunit of CIII",binds

# Source: paper PMC10185535, “Structural insights into cardiolipin replacement by phosphatidylglycerol in a cardiolipin-lacking yeast respiratory supercomplex” (Nature Communications, 2023)
